The IC50 is the concentration that gives 50% inhibition.

Molecules are shown by their SMILES.

In assay [1] the target is Phosphatidylinositol 4,5-bisphosphate 3-kinase catalytic subunit gamma isoform (Homo sapiens, UniProt P48736). Nature of the assay: Inhibition of PI3Kgamma (unknown origin) using PIP2 as substrate pretreated for 15 mins followed by substrate addition measured after 1 hr.
Assay [2] addresses T1, Glycogen synthase kinase-3 beta (Homo sapiens, UniProt P49841). Nature of the assay: Inhibition of GSK3beta (unknown origin) after 1 hr by fluorescence polarization assay. For orientation: Polarisation of emitted light reports the rotation of a fluorescent probe.
Assay [3] concerns the target T2, Phosphatidylinositol 4,5-bisphosphate 3-kinase catalytic subunit delta isoform (Homo sapiens, UniProt O00329).
T2 sequence (O00329 whole entry): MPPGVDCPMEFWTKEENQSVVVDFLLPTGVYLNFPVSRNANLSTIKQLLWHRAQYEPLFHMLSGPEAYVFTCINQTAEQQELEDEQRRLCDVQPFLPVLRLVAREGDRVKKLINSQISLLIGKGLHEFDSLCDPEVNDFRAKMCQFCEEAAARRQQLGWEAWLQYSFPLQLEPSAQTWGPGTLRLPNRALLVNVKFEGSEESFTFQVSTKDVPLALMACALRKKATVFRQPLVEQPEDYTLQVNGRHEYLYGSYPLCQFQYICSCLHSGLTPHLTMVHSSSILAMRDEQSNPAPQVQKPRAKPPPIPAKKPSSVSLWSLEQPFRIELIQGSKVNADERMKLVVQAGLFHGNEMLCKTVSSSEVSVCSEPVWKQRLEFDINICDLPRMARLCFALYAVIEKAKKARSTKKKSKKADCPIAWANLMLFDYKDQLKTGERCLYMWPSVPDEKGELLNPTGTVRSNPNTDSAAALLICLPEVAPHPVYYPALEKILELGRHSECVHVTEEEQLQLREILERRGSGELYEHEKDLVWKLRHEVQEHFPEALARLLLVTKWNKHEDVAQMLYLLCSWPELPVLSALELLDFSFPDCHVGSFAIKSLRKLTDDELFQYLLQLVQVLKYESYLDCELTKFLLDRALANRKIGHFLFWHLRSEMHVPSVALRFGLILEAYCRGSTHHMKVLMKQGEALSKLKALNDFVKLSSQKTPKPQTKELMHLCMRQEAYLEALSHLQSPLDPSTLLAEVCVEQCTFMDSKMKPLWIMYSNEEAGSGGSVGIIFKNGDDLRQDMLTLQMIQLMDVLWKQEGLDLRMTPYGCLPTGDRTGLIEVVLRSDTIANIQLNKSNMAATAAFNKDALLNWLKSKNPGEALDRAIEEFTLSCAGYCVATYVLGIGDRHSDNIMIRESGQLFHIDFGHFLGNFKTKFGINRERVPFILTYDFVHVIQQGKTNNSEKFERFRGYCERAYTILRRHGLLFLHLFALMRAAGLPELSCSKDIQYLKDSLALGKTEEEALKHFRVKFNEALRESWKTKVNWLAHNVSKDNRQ
Nature of the assay: Inhibition of PI3Kdelta (unknown origin) using PIP2 as substrate pretreated for 15 mins followed by substrate addition measured after 1 hr.

Assay [4] addresses Phosphatidylinositol 4,5-bisphosphate 3-kinase catalytic subunit beta isoform (Homo sapiens, UniProt P42338). Put plainly: Inhibition of PI3Kbeta (unknown origin) using PIP2 as substrate pretreated for 15 mins followed by substrate addition measured after 1 hr.
Assay [5] concerns the target Phosphatidylinositol 4,5-bisphosphate 3-kinase catalytic subunit alpha isoform (Homo sapiens, UniProt P42336). Nature of the assay: Inhibition of PI3Kalpha (unknown origin) using PIP2 as substrate pretreated for 15 mins followed by substrate addition measured after 1 hr.
The target in assay [6] is Serine/threonine-protein kinase pim-1 (Homo sapiens, UniProt P11309). Put plainly: Inhibition of PIM1 (unknown origin) using TAMRA-ERMRPRKRQGSVRRRV-NH2 as substrate pretreated for 30 mins followed by substrate addition measured after 1 hr by IMAP assay.
For assay [7], the species on record is Homo sapiens. Nature of the assay: Selectivity ratio of pIC50 for ALK5 (unknown origin) to pIC50 for PI3Kdelta (unknown origin).
For assay [8], the target named is T1, Glycogen synthase kinase-3 beta. Put plainly: Inhibition of human GSK3beta using YRRAAVPPSPSLSRHSSPHQ(pS)EDEEE as substrate in presence of [gamma-33P]-ATP.

Chain of Phosphatidylinositol 4,5-bisphosphate 3-kinase catalytic subunit alpha isoform (P42336 whole entry, canonical isoform): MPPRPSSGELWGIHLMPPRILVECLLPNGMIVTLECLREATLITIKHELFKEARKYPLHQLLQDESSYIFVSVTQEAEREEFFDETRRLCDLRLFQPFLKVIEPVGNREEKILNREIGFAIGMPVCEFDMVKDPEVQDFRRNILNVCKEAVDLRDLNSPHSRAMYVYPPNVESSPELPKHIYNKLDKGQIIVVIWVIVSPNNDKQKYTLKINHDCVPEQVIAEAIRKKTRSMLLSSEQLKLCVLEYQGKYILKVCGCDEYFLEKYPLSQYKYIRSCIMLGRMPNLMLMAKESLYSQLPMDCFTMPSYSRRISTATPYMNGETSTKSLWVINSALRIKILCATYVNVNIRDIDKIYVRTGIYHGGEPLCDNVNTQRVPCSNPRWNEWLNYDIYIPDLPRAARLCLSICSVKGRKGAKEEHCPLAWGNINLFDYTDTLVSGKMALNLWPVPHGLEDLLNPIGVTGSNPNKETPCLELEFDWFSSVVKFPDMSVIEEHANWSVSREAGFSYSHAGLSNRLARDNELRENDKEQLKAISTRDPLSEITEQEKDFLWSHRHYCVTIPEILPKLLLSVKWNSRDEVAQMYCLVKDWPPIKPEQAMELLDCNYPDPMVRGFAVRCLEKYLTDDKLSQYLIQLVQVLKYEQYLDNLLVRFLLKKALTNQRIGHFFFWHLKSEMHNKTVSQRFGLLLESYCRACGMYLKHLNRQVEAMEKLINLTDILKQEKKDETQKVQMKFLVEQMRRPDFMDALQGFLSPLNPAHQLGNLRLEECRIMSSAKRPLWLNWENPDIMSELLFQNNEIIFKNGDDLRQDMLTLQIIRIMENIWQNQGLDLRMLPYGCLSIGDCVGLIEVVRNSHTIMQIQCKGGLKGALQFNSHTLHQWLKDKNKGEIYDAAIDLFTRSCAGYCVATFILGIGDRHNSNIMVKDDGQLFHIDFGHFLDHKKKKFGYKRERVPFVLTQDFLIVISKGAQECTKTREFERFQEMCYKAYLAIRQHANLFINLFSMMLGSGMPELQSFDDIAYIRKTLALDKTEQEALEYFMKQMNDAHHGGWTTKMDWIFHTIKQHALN
Chain of Serine/threonine-protein kinase pim-1 (P11309 whole entry): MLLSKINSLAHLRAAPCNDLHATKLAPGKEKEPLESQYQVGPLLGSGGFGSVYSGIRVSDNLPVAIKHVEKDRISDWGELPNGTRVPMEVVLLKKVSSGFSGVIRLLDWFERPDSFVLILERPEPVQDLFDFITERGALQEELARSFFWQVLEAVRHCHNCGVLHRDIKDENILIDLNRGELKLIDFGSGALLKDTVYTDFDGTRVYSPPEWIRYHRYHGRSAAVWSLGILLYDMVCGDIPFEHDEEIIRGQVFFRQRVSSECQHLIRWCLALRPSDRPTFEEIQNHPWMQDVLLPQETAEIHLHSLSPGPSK
Chain of Phosphatidylinositol 4,5-bisphosphate 3-kinase catalytic subunit gamma isoform (P48736 whole entry, canonical isoform): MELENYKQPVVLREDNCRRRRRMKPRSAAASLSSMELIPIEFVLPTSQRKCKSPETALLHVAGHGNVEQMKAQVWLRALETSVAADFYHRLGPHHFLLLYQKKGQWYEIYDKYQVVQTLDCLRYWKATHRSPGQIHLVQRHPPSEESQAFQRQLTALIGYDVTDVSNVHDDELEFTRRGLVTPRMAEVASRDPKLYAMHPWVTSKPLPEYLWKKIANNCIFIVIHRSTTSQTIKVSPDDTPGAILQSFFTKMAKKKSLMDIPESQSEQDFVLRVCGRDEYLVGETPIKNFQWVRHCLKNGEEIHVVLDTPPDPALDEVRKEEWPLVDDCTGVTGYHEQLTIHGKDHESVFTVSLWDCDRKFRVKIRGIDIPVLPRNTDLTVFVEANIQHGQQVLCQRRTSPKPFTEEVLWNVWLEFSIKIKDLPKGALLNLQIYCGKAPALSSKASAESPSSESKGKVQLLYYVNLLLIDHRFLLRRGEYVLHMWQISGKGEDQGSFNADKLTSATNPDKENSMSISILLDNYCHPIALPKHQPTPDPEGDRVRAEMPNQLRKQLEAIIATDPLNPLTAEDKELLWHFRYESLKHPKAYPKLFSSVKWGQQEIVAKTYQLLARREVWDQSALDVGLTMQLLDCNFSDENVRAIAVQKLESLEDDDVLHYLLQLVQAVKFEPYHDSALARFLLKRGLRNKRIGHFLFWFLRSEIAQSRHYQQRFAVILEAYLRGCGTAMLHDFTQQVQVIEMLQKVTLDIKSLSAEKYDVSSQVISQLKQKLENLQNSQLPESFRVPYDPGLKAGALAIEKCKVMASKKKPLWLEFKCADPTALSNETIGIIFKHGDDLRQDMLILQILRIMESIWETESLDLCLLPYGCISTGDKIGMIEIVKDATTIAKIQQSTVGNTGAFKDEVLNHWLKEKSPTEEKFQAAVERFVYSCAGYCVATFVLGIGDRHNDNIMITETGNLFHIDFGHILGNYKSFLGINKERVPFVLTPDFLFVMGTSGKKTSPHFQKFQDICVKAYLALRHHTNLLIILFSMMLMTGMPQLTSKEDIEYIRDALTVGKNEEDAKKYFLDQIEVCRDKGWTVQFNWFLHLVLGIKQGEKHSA
Chain of Phosphatidylinositol 4,5-bisphosphate 3-kinase catalytic subunit beta isoform (P42338 whole entry, canonical isoform): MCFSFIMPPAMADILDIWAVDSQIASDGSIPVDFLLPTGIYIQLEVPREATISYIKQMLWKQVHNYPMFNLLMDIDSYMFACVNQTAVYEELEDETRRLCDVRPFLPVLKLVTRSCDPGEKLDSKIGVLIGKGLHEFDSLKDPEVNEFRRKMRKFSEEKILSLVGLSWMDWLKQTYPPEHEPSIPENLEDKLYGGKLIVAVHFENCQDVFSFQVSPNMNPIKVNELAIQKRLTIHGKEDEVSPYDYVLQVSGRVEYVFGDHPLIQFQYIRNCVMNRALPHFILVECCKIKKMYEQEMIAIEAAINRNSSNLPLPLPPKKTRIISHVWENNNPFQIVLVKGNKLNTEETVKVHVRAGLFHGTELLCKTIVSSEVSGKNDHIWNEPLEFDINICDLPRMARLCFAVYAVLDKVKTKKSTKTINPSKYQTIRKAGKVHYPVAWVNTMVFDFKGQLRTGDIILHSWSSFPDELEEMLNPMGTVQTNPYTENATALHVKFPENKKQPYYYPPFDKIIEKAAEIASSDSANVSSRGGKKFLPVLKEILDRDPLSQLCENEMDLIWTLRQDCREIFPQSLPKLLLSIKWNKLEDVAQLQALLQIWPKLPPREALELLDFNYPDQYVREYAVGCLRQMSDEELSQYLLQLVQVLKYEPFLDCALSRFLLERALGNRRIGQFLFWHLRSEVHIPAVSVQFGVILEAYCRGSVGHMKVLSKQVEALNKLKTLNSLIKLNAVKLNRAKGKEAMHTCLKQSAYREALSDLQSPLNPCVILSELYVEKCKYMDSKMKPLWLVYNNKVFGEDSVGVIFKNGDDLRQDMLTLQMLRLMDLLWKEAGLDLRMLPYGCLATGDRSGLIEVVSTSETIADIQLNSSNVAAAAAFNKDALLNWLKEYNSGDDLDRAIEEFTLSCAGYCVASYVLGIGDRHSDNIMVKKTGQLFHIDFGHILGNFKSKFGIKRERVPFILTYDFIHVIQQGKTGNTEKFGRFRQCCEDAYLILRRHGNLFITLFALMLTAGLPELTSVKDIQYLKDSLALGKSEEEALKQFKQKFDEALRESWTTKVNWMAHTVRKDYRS
T1 sequence (P49841 whole entry, canonical isoform): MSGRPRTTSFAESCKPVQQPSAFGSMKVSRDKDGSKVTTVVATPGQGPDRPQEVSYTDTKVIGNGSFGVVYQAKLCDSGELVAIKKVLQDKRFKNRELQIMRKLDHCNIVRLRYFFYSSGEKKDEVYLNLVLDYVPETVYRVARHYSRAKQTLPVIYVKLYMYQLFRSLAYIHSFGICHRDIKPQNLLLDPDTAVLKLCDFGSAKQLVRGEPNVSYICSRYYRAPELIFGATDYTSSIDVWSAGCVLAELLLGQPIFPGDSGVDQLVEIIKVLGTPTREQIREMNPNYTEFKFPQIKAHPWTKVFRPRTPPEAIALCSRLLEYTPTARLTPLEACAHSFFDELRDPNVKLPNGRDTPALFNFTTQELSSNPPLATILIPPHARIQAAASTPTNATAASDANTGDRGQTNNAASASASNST

For `O=C(Nc1cc(-c2cccc3[nH]ccc23)cc2[nH]ncc12)C1CC1`, the half-inhibitory concentration (IC50) is greater than 25.1 µM in assay [1]; 7.94 µM in assay [2]; 1 µM in assay [3]; 25.1 µM in assay [4]; greater than 25.1 µM in assay [5]; 15.8 µM in assay [6].
As to `O=C(Nc1cc(-c2cccc(O)c2)cc2[nH]ncc12)c1ccccn1`, the IC50 in assay [1] is 7.94 µM; in assay [2], 1.58 µM; in assay [3], 1.58 µM; in assay [4], 31.6 µM; in assay [5], 25.1 µM; in assay [6] it was 2 µM.
For the compound `O=C(Nc1cc(-c2ccccc2)cc2[nH]ncc12)C1CC1`, the half-inhibitory concentration (IC50) was 25.1 µM in assay [1]; 31.6 µM in assay [2]; 20 µM in assay [3]; greater than 25.1 µM in assay [4]; 25.1 µM in assay [5]; 15.8 µM in assay [6].
On to `O=C(Nc1cc(-c2ccc(O)cc2)cc2[nH]ncc12)C1CC1`, for which the IC50 in assay [1] is greater than 25.1 µM; in assay [2], 0.631 µM; in assay [3], 6.31 µM; in assay [4] it was 25.1 µM; in assay [5], 25.1 µM; in assay [6], 0.316 µM.
In the case of `O=C(Nc1cc(-c2cccc3[nH]ccc23)cc2[nH]ncc12)c1ccccn1`, the IC50 was 3.16 µM in assay [2], 2.51 µM in assay [6] and 20 µM in assay [8]. Moreover, the Ratio IC50 in assay [7] is less than 10.
On to `O=C(Nc1cc(-c2ccc3cc[nH]c3c2)cc2[nH]ncc12)c1ccccn1`, for which the IC50 was 15.8 µM in assay [1]; greater than 25.1 µM in assay [2]; 3.16 µM in assay [3]; 12.6 µM in assay [4]; 25.1 µM in assay [5].
For `O=C(Nc1cc(-c2cccc(O)c2)cc2[nH]ncc12)C1CC1`, the half-maximal inhibitory concentration (IC50) was 7.94 µM in assay [1]; 1.26 µM in assay [2]; 3.98 µM in assay [3]; 20 µM in assay [4]; 20 µM in assay [5]; 2.51 µM in assay [6].
Take `O=C(Nc1cc(-c2ccc(O)cc2)cc2[nH]ncc12)c1ccccn1`: the concentration for half-maximal inhibition (IC50) is 5.01 µM in assay [1]; 0.501 µM in assay [3]; greater than 25.1 µM in assay [4]; greater than 25.1 µM in assay [5]; 0.126 µM in assay [6]; 1.58 µM in assay [8].
With `O=C(Nc1n[nH]c2cc(-c3ccc(O)cc3)ccc12)C1CC1`, the half-inhibitory concentration (IC50) is greater than 25.1 µM in assay [1], 25.1 µM in assay [3], greater than 25.1 µM in assay [4] and greater than 25.1 µM in assay [5].

Values taken from ChEMBL document CHEMBL4130529, “From PIM1 to PI3Kδ via GSK3β: Target Hopping through the Kinome” (ACS Med Chem Lett, 2017).
